Reference: PubChem BioAssay AID1963981 (Molecular Pharmacology Branch, DTP, NCI, 2024)

Test system: 354836-022-R-J1-PDC multicell spheroid viability
Experiment: Anticancer human tumor 354836-022-R-J1-PDC patient-derived head and neck squamous cell carcinoma cell line growth inhibition [PI3K]
Details: for IC50: curve of first compound; for viability, T/C: stronger effect = lower value
Text: Combinatorial screen of targeted agents with the PI3K inhibitors inavolisib, alpelisib, duvelisib, and copanlisib in multi-cell type tumor spheroids
A high-throughput screen of multi-cell type tumor spheroids was designed to identify active combinations of targeted small molecules and PI3K pathway inhibitors. Complex spheroids include a stromal component modeled by human endothelial cells (HUVEC) and fibroblasts modeled by human mesenchymal stem cells (MSCs). The concentration ranges selected for each drug and investigational agent were based upon clinically achievable concentrations if the clinical Cmax of the agent was known.
Compounds. The drugs and investigational agents: inavolisib (NSC800729), alpelisib (NSC765974), duvelisib (NSC772469), copanlisib (NSC816437), ipatasertib (NSC767898), afuresertib (NSC778305), talazoparib (NSC767125), sapanisertib (NSC764658), selumetinib (NSC741078), tovorafenib (DAY101, NSC766906), vemurafenib (NSC761431), ravoxertinib (NSC781343), sotorasib (NSC818433), MRTX1133 (NSC 836407), abemaciclib (NSC 768073), palbociclib (NSC758247), venetoclax (NSC 766270), SY5609 (NSC837396), enzalutamide (NSC755605), and darolutamide (NSC825331), were obtained from the National Cancer Institute (NCI) Developmental Therapeutics Program Chemical Repository. The FDA-approved anticancer drug set is available from the NCI Developmental Therapeutics Program. […] The stock solutions were prepared in dimethyl sulfoxide (DMSO, Sigma-Aldrich, St. Louis, MO, cat. D2650) at 800-fold the tested concentration and stored at -70 degrees C prior to their use. All drugs and investigational agents were tested over a range starting from a high concentration at or near the clinical Cmax and decreasing in half-log increments. If the clinical Cmax for an agent had not been determined, the highest concentration tested was 10 microM.
Cell Culture. All cells were maintained in an incubator at 37 degrees C and 5% CO2 with 95% humidity. The PDC lines were cultured according to standard operating procedures established by the NCI PDMR (https://pdmr.cancer.gov/sops/default.htm). All PDCs were thawed and cultured in Matrigel-coated flasks prepared with a working solution of 1X Ham's F-12 nutrient mix, without supplementation (Invitrogen, Waltham, MA, cat. 11765054), 100 U/mL penicillin-streptomycin (Invitrogen, cat. 15140122), and 2.5% Matrigel (Corning Inc., Corning, NY, cat. 354248) for the first three passages. The 354836-022-R-J1-PDC, 475296-252-R-J1-PDC, and 997726-040-R-J2-PDC lines were cultured in 6A media, which includes advanced DMEM/F-12 (Thermo Fisher Scientific, cat. 12634028), 10 mM HEPES (Thermo Fisher Scientific, cat. 15630080), 1X GlutaMAX supplement (Thermo Fisher Scientific, cat. 35050061), 0.1 mg/mL primocin (InvivoGen, San Diego, CA, cat. ant-pm-2), 10% defined fetal bovine serum, heat inactivated (HyClone Laboratories Inc., Logan, UT, cat. SH30070.03HI), 50% L-WRN conditioned media (ATCC, cat. CRL-3276), 1.25 mM N-Acetyl-L-cysteine (Sigma-Aldrich, cat. A9165), 10 mM nicotinamide (Sigma-Aldrich, cat. N0636), 1X B-27 supplement (Thermo Fisher Scientific, cat. 17504044), 1X N-2 supplement (Thermo Fisher Scientific, cat. 17502048), and 10 microM Y-27632 dihydrochloride (Tocris Bioscience, Bristol, United Kingdom, cat. 1254). The 624824-186-R-J2-PDC line was cultured in 6C/Colon 1B media, which includes all 6A media components plus 50 ng/mL human EGF recombinant protein (Thermo Fisher Scientific, cat. PHG0311). […]

[1] = second compound 0.0316 µM, first compound 0.0316 µM
[2] = second compound 0.0316 µM, first compound 0.1 µM
[3] = second compound 0.1 µM, first compound 0.0316 µM
[4] = second compound 0.1 µM, first compound 0.1 µM
[5] = second compound 0.316 µM, first compound 0.0316 µM
[6] = second compound 0.316 µM, first compound 0.1 µM
[7] = second compound 1 µM, first compound 0.0316 µM
[8] = second compound 1 µM, first compound 0.1 µM
[9] = second compound 3.16 µM, first compound 0.0316 µM
[10] = second compound 3.16 µM, first compound 0.1 µM
[11] = second compound 10 µM, first compound 0.0316 µM
[12] = second compound 10 µM, first compound 0.1 µM
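Further: spheroids exposed to agents for seven days before the viability read.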

## CC(C)NCC(C(=O)N1CCN(c2ncnc3c2C(C)CC3O)CC1)c1ccc(Cl)cc1 (centres undefined) + CC(Nc1ncnc2nc[nH]c12)c1cc2cccc(Cl)c2c(=O)n1-c1ccccc1
Second compound 0.0316 µM
  IC50: 317 nM
Second compound 0.1 µM
  IC50: 490 nM
Second compound 0.316 µM
  IC50: 340 nM
Second compound 1 µM
  IC50: 491 nM
Second compound 3.16 µM
  IC50: 383 nM
Second compound 10 µM
  IC50: 454 nM
[1]
  viability, T/C: 87.3%
[2]
  viability, T/C: 75.8%
Second compound 0.0316 µM, first compound 0.316 µM
  viability, T/C: 47.8%
Second compound 0.0316 µM, first compound 1 µM
  viability, T/C: 27.4%
Second compound 0.0316 µM, first compound 3.16 µM
  viability, T/C: 10.1%
Second compound 0.0316 µM, first compound 10 µM
  viability, T/C: 3.75%
[3]
  viability, T/C: 90.7%
[4]
  viability, T/C: 79.7%
Second compound 0.1 µM, first compound 0.316 µM
  viability, T/C: 52.3%
Second compound 0.1 µM, first compound 1 µM
  viability, T/C: 43.7%
Second compound 0.1 µM, first compound 3.16 µM
  viability, T/C: 12.9%
Second compound 0.1 µM, first compound 10 µM
  viability, T/C: 3.85%
[5]
  viability, T/C: 100%
[6]
  viability, T/C: 77.7%
Second compound 0.316 µM, first compound 0.316 µM
  viability, T/C: 50.1%
Second compound 0.316 µM, first compound 1 µM
  viability, T/C: 32.2%
Second compound 0.316 µM, first compound 3.16 µM
  viability, T/C: 7.64%
Second compound 0.316 µM, first compound 10 µM
  viability, T/C: 5.53%
[7]
  viability, T/C: 95.2%
[8]
  viability, T/C: 84.8%
Second compound 1 µM, first compound 0.316 µM
  viability, T/C: 64.3%
Second compound 1 µM, first compound 1 µM
  viability, T/C: 27.3%
Second compound 1 µM, first compound 3.16 µM
  viability, T/C: 13.8%
Second compound 1 µM, first compound 10 µM
  viability, T/C: 3.16%
[9]
  viability, T/C: 102%
[10]
  viability, T/C: 82.3%
Second compound 3.16 µM, first compound 0.316 µM
  viability, T/C: 52.5%
Second compound 3.16 µM, first compound 1 µM
  viability, T/C: 30.8%
Second compound 3.16 µM, first compound 3.16 µM
  viability, T/C: 12.4%
Second compound 3.16 µM, first compound 10 µM
  viability, T/C: 4.48%
[11]
  viability, T/C: 87.5%
[12]
  viability, T/C: 76.7%
Second compound 10 µM, first compound 0.316 µM
  viability, T/C: 61.2%
Second compound 10 µM, first compound 1 µM
  viability, T/C: 28.4%
Second compound 10 µM, first compound 3.16 µM
  viability, T/C: 11%
Second compound 10 µM, first compound 10 µM
  viability, T/C: 3.05%

## CC(=O)c1c(C)c2cnc(Nc3ccc(N4CCNCC4)cn3)nc2n(C2CCCC2)c1=O + CC(Nc1ncnc2nc[nH]c12)c1cc2cccc(Cl)c2c(=O)n1-c1ccccc1
Second compound 0.0316 µM
  IC50: > 100 nM
Second compound 0.1 µM
  IC50: > 100 nM
Second compound 0.316 µM
  IC50: > 100 nM
Second compound 1 µM
  IC50: > 100 nM
Second compound 3.16 µM
  IC50: > 100 nM
Second compound 10 µM
  IC50: > 100 nM
Second compound 0.0316 µM, first compound 0.000316 µM
  viability, T/C: 96.8%
Second compound 0.0316 µM, first compound 0.001 µM
  viability, T/C: 110%
Second compound 0.0316 µM, first compound 0.00316 µM
  viability, T/C: 108%
Second compound 0.0316 µM, first compound 0.01 µM
  viability, T/C: 103%
[1]
  viability, T/C: 97.7%
[2]
  viability, T/C: 99.5%
Second compound 0.1 µM, first compound 0.000316 µM
  viability, T/C: 89.4%
Second compound 0.1 µM, first compound 0.001 µM
  viability, T/C: 99.3%
Second compound 0.1 µM, first compound 0.00316 µM
  viability, T/C: 94.9%
Second compound 0.1 µM, first compound 0.01 µM
  viability, T/C: 91.5%
[3]
  viability, T/C: 105%
[4]
  viability, T/C: 101%
Second compound 0.316 µM, first compound 0.000316 µM
  viability, T/C: 90%
Second compound 0.316 µM, first compound 0.001 µM
  viability, T/C: 98.8%
Second compound 0.316 µM, first compound 0.00316 µM
  viability, T/C: 100%
Second compound 0.316 µM, first compound 0.01 µM
  viability, T/C: 100%
[5]
  viability, T/C: 111%
[6]
  viability, T/C: 113%
Second compound 1 µM, first compound 0.000316 µM
  viability, T/C: 82.2%
Second compound 1 µM, first compound 0.001 µM
  viability, T/C: 96.7%
Second compound 1 µM, first compound 0.00316 µM
  viability, T/C: 97.2%
Second compound 1 µM, first compound 0.01 µM
  viability, T/C: 110%
[7]
  viability, T/C: 96.8%
[8]
  viability, T/C: 91.6%
Second compound 3.16 µM, first compound 0.000316 µM
  viability, T/C: 108%
Second compound 3.16 µM, first compound 0.001 µM
  viability, T/C: 107%
Second compound 3.16 µM, first compound 0.00316 µM
  viability, T/C: 98.5%
Second compound 3.16 µM, first compound 0.01 µM
  viability, T/C: 104%
[9]
  viability, T/C: 88.3%
[10]
  viability, T/C: 90.2%
Second compound 10 µM, first compound 0.000316 µM
  viability, T/C: 89.8%
Second compound 10 µM, first compound 0.001 µM
  viability, T/C: 95.2%
Second compound 10 µM, first compound 0.00316 µM
  viability, T/C: 91.1%
Second compound 10 µM, first compound 0.01 µM
  viability, T/C: 109%
[11]
  viability, T/C: 98.8%
[12]
  viability, T/C: 91.5%
